Measurements published in ChEMBL document CHEMBL1141611, “Truncation and non-natural amino acid substitution studies on HTLV-I protease hexapeptidic inhibitors” (Bioorg Med Chem Lett, 2008).
pIC50: −log10 of the molar value. *1 amine or outer side, *2 acyl side, *3 side chain or, on linkers, in order; H or OH if unused. Where a SMILES comes first, the peptide text is derived from it. [ ]: non-standard residue; d: D form. X1 = O=C([C@@H](O)[C@H](Cc1ccccc1)N[*:1])[*:2]; Thz(5,5-Me2) = CC1(C)SCN[C@@H]1C(=O)O

Legend:
Gag-Pro polyprotein = Gag-Pro polyprotein (Human T-cell leukemia virus 1 (strain Japan ATK-1 subtype A) (HTLV-1), UniProt P10274, L40I); experiment: Inhibition of HTLV1 protease L40I mutant expressed in Escherichia coli BL21(DE3)pLysS; set-up: species or system Human T-cell leukemia virus type I
Sequence of Gag-Pro polyprotein (P10274 450-574 L489I): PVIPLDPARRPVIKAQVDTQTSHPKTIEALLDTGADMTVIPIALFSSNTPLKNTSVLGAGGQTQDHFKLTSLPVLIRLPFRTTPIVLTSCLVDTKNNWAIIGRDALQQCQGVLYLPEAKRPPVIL

[1] = biological target: Protease (Human immunodeficiency virus 1) (UniProt Q9YQ12); experiment: Inhibition of HIV1 protease at 50 nM
Sequence of Protease (Human immunodeficiency virus 1) (Q9YQ12 as listed by the source): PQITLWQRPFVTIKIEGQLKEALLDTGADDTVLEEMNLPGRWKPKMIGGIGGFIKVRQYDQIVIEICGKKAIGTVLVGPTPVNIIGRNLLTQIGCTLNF

| Compound | pIC50 (Gag-Pro polyprotein) | inhibition [1] [%] |
| --- | --- | --- |
| CC[C@H](C)[C@H](NC(C)=O)C(=O)N[C@H](C(=O)N[C@@H](Cc1ccccc1)[C@H](O)C(=O)N1CSC(C)(C)[C@@H]1C(=O)N[C@H](C(=O)N[C@@H](CCSC)C(N)=O)c1ccccc1)[C@@H](C)CC | 6.91 | 86 |
| CC[C@H](C)[C@H](NC(C)=O)C(=O)N[C@@H](Cc1ccccc1)[C@H](O)C(=O)N1CSC(C)(C)[C@@H]1C(=O)N[C@H](C(=O)N[C@@H](CCSC)C(N)=O)[C@@H](C)CC | < 6.00 | 89 |
| CC(=O)N[C@H](C(=O)N[C@H](C(=O)N[C@@H](Cc1ccccc1)[C@H](O)C(=O)N1CSC(C)(C)C1C(=O)NCC(C)C)C(C)(C)C)c1ccccc1 (some centres undefined) | 6.97 | > 99 |
| CC[C@H](C)[C@H](NC(=O)[C@@H]1N(C(=O)[C@@H](O)[C@H](Cc2ccccc2)NC(=O)[C@@H](NC(=O)[C@@H](NC(C)=O)c2ccccc2)C(C)(C)C)CSC1(C)C)C(=O)N[C@@H](CCC(N)=O)C(N)=O | 7.08 | 98 |
| CC[C@H](C)[C@H](NC(=O)[C@@H]1N(C(=O)[C@@H](O)[C@H](Cc2ccccc2)NC(=O)[C@@H](NC(=O)[C@@H](NC(C)=O)[C@@H](C)CC)[C@@H](C)CC)CSC1(C)C)C(N)=O | 6.60 | 57 |
| CC[C@H](C)[C@H](NC(C)=O)C(=O)N[C@H](C(=O)N[C@@H](Cc1ccccc1)[C@H](O)C(=O)N1CSC(C)(C)[C@@H]1C(=O)N[C@H](C(=O)N[C@@H](CCSC)C(N)=O)[C@@H](C)CC)c1ccccc1 | 6.49 | 88 |
| CC[C@H](C)[C@H](NC(C)=O)C(=O)N[C@H](C(=O)N[C@@H](Cc1ccccc1)[C@H](O)C(=O)N1CSC(C)(C)[C@@H]1C(=O)N[C@H](C(=O)N[C@@H](CCSC)C(N)=O)[C@@H](C)CC)C(C)(C)C | 6.84 | 97 |
| C=C(C)CNC(=O)C1N(C(=O)[C@@H](O)[C@H](Cc2ccccc2)NC(=O)[C@@H](NC(=O)[C@@H](NC(C)=O)c2ccccc2)C(C)(C)C)CSC1(C)C (some centres undefined) | 6.85 | > 99 |
| CC(=O)N[C@H](C(=O)N[C@H](C(=O)N[C@@H](Cc1ccccc1)[C@H](O)C(=O)N1CSC(C)(C)C1C(=O)NCc1ccccc1C)C(C)(C)C)c1ccccc1 (some centres undefined) | 6.99 | 99 |
| CC[C@H](C)[C@H](NC(C)=O)C(=O)N[C@H](C(=O)N[C@@H](Cc1ccccc1)[C@H](O)C(=O)N1CSC(C)(C)[C@@H]1C(=O)N[C@H](C(=O)N[C@@H](CCC(N)=O)C(N)=O)[C@@H](C)CC)[C@@H](C)CC | 6.80 | 93 |
| CSCC[C@H](NC(=O)[C@@H](NC(=O)[C@H]1N(C(=O)[C@@H](O)[C@H](Cc2ccccc2)NC(=O)[C@@H](NC(=O)[C@H](CCC(N)=O)NC(=O)[C@@H]2CCCN2)C(C)C)CSC1(C)C)C(C)C)C(=O)N[C@@H](Cc1c[nH]cn1)C(=O)O (H-PQV[X1][Thz(5,5-Me2)]VMH-OH) | – | 58 |
| C=CCNC(=O)C1N(C(=O)[C@@H](O)[C@H](Cc2ccccc2)NC(=O)[C@@H](NC(=O)[C@@H](NC(C)=O)c2ccccc2)C(C)(C)C)CSC1(C)C (some centres undefined) | 6.88 | > 99 |
| CC[C@H](C)[C@H](NC(=O)[C@@H]1N(C(=O)[C@@H](O)[C@H](Cc2ccccc2)NC(=O)[C@@H](NC(=O)[C@@H](NC(C)=O)c2ccccc2)C(C)(C)C)CSC1(C)C)C(=O)N[C@@H](CCSC)C(N)=O | 7.00 | 99 |
| CC[C@H](C)[C@H](NC(=O)[C@@H]1N(C(=O)[C@@H](O)[C@H](Cc2ccccc2)NC(=O)[C@@H](NC(=O)[C@@H](NC(C)=O)c2ccccc2)C(C)(C)C)CSC1(C)C)C(N)=O | 6.84 | 93 |
| CC[C@H](C)[C@H](NC(C)=O)C(=O)N[C@H](C(=O)N[C@H](Cc1ccccc1)[C@H](O)C(=O)N1CSC(C)(C)[C@@H]1C(=O)N[C@H](C(=O)N[C@@H](CCSC)C(N)=O)[C@@H](C)CC)[C@@H](C)CC | 6.74 | 73 |
| CSCC[C@H](NC(=O)[C@@H](NC(=O)[C@@H]1CCCN1C(=O)[C@@H](O)[C@H](Cc1ccccc1)NC(=O)[C@@H](NC(=O)[C@H](CCC(N)=O)NC(=O)[C@@H]1CCCN1)C(C)C)C(C)C)C(=O)N[C@@H](Cc1cnc[nH]1)C(=O)O (H-PQV[X1]PVMH-OH) | 6.80 | < 30 |
| CC[C@H](C)[C@H](NC(=O)[C@@H](NC(C)=O)C(C)(C)C)C(=O)N[C@@H](Cc1ccccc1)[C@H](O)C(=O)N1CSC(C)(C)[C@@H]1C(=O)N[C@H](C(=O)N[C@@H](CCSC)C(N)=O)[C@@H](C)CC | 6.70 | 98 |
| CC[C@H](C)[C@H](NC(C)=O)C(=O)N[C@H](C(=O)N[C@@H](Cc1ccccc1)[C@H](O)C(=O)N1CSC(C)(C)[C@@H]1C(=O)N[C@H](C(=O)N[C@@H](C)C(N)=O)[C@@H](C)CC)[C@@H](C)CC | 6.80 | 82 |
| CC[C@H](C)[C@H](NC(C)=O)C(=O)N[C@H](C(=O)N[C@@H](Cc1ccccc1)[C@H](O)C(=O)N1CSC(C)(C)[C@@H]1C(=O)N[C@H](C(=O)N[C@@H](CCSC)C(N)=O)[C@@H](C)CC)[C@@H](C)CC | 7.06 | 98 |
| CC[C@H](C)[C@H](NC(C)=O)C(=O)N[C@H](C(=O)N[C@@H](Cc1ccccc1)[C@H](O)C(=O)N1CSC(C)(C)[C@@H]1C(=O)N[C@H](C(=O)N[C@@H](CCSC)C(N)=O)C(C)(C)C)[C@@H](C)CC | 6.74 | 79 |
| CCCNC(=O)C1N(C(=O)[C@@H](O)[C@H](Cc2ccccc2)NC(=O)[C@@H](NC(=O)[C@@H](NC(C)=O)c2ccccc2)C(C)(C)C)CSC1(C)C (some centres undefined) | 6.71 | 98 |
| CC[C@H](C)[C@H](NC(=O)[C@@H](NC(C)=O)c1ccccc1)C(=O)N[C@@H](Cc1ccccc1)[C@H](O)C(=O)N1CSC(C)(C)[C@@H]1C(=O)N[C@H](C(=O)N[C@@H](CCSC)C(N)=O)[C@@H](C)CC | 6.99 | 98 |
| CSCC[C@H](NC(=O)[C@@H](NC(=O)[C@H]1N(C(=O)[C@@H](O)[C@H](Cc2ccccc2)NC(=O)[C@@H](NC(=O)[C@H](CCC(N)=O)NC(=O)[C@@H]2CCCN2)C(C)C)CSC1(C)C)C(C)C)C(=O)N[C@@H](Cc1cnc[nH]1)C(=O)O (H-PQV[X1][Thz(5,5-Me2)]VMH-OH) | 6.82 | – |
| CC[C@H](C)[C@H](NC(C)=O)C(=O)N[C@H](C(=O)N[C@@H](Cc1ccccc1)[C@H](O)C(=O)N1CSC(C)(C)[C@@H]1C(=O)N[C@H](C(=O)N[C@@H](Cc1ccccc1)C(N)=O)[C@@H](C)CC)[C@@H](C)CC | 7.02 | 98 |
| CC(=O)N[C@H](C(=O)N[C@H](C(=O)N[C@@H](Cc1ccccc1)[C@H](O)C(=O)N1CSC(C)(C)C1C(=O)NCc1cccc(I)c1)C(C)(C)C)c1ccccc1 (some centres undefined) | 6.33 | 97 |
| CC(=O)N[C@H](C(=O)N[C@H](C(=O)N[C@@H](Cc1ccccc1)[C@H](O)C(=O)N1CSC(C)(C)C1C(=O)NCC(C)(C)C)C(C)(C)C)c1ccccc1 (some centres undefined) | 6.95 | 99 |
| CSCC[C@H](NC(=O)[C@@H](NC(=O)[C@H]1N(C(=O)[C@@H](O)[C@H](Cc2ccccc2)NC(=O)[C@@H](NC(=O)[C@H](CCC(N)=O)NC(C)=O)C(C)C)CSC1(C)C)C(C)C)C(N)=O (Ac-QV[X1][Thz(5,5-Me2)]VM-NH2) | 6.45 | 96 |
| CC(=O)N[C@H](C(=O)N[C@H](C(=O)N[C@@H](Cc1ccccc1)[C@H](O)C(=O)N1CSC(C)(C)C1C(=O)NCC1CC1)C(C)(C)C)c1ccccc1 (some centres undefined) | 6.84 | 99 |
